Experimental data published in patent publication US11345681B1, “Inhibitors of fibroblast growth factor receptor kinases” (Kinnate Biopharma Inc., priority 2020, dated 2022).

Molecular target: Wild type FGFR2 (Homo sapiens (Human), UniProt P21802)
Assay: FGFR2 kinase assay (fluorescence-based microfluidic mobility shift assay)
Format: biochemical
Conditions: wild type FGFR2 0.06 nM, 100 μM ATP, 80 minutes at room temperature; class symbols

Sequence of Wild type FGFR2 (P21802 22-821): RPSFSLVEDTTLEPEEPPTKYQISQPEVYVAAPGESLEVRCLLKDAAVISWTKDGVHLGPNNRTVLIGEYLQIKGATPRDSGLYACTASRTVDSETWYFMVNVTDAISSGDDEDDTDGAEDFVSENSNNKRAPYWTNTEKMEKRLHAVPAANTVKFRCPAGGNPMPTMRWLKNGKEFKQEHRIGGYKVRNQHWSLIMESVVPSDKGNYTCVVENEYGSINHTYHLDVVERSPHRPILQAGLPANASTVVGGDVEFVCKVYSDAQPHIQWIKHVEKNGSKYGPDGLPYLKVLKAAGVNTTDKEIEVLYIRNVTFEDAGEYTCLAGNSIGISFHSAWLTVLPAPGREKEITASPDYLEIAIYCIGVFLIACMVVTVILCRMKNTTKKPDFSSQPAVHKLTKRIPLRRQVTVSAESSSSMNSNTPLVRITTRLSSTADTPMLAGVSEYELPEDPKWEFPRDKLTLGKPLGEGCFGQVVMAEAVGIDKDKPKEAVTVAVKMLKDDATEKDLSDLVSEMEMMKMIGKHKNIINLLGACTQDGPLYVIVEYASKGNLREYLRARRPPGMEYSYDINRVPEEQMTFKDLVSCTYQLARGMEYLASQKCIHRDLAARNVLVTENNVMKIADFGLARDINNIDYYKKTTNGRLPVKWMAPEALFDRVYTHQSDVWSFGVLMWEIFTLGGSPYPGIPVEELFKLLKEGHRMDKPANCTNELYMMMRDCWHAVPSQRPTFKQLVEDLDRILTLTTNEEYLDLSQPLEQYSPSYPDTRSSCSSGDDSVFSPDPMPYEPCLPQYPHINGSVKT

## C=CC(=O)N1C[C@@H](n2nc(C#Cc3c(F)cc4[nH]cnc4c3F)c(C(N)=O)c2NC)C[C@@H]1COC [Example 177, 1-((3S,5R)-1-acryloyl-5-(methoxymethyl)pyrrolidin-3-yl)-3-((4,6-difluoro-1H-benzo[d]imidazol-5-yl)ethynyl)-5-(methylamino)-1H-pyrazole-4-carboxamide]
  IC50: ≤ 100 nM

## C=CC(=O)N1C[C@@H](n2nc(C#Cc3c(F)cc4c(ncn4CC)c3F)c(C(N)=O)c2NCCCN2CCOCC2)C[C@@H]1COC [Example 111, 3-[2-(1-Ethyl-4,6-difluoro-1,3-benzodiazol-5-yl)ethynyl]-1-[(3S,5R)-5-(methoxymethyl)-1-(prop-2-enoyl)pyrrolidin-3-yl]-5-[[3-(morpholin-4-yl)propyl]amino]pyrazole-4-carboxamide]
  IC50: ≤ 100 nM

## C=CC(=O)N1C[C@@H](n2nc(C#Cc3cc4nc(C)n(CC)c4cc3F)c(C(N)=O)c2NC)C[C@@H]1COC [Example 37, 3-[2-(1-ethyl-6-fluoro-2-methyl-1,3-benzodiazol-5-yl)ethynyl]-1-[(3S,5R)-5-(methoxymethyl)-1-(Prop-2-enoyl)pyrrolidin-3-yl]-5-(methylamino)pyrazole-4-carboxamide]
  IC50: ≤ 100 nM

## C=CC(=O)N1C[C@@H](n2nc(C#Cc3cc4nc5n(c4cc3F)CCC5)c(C(N)=O)c2NC)C[C@@H]1COC [Example 260, 1-((3S,5R)-1-acryloyl-5-(methoxymethyl)pyrrolidin-3-yl)-3-((7-fluoro-2,3-dihydro-1H-benzo[d]pyrrolo[1,2-a]imidazol-6-yl)ethynyl)-5-(methylamino)-1H-pyrazole-4-carboxamide]
  IC50: ≤ 100 nM

## C=CC(=O)N1C[C@@H](n2nc(C#Cc3cc4ncn(C)c4cc3F)c(C(N)=O)c2NC)C[C@@H]1COC(F)(F)F [Example 79, 3-[2-(6-Fluoro-1-methyl-1,3-benzodiazol-5-yl)ethynyl]-5-(methylamino)-1-[(3S,5R)-1-(prop-2-enoyl)-5-[(trifluoromethoxy)methyl]pyrrolidin-3-y]pyrazole-4-carboxamide]
  IC50: ≤ 100 nM

## C=C(F)C(=O)N1CC(n2nc(C#Cc3c(F)cc4c(ncn4C4CC4)c3F)c(C(N)=O)c2NC)C1 [Example 173, 3-((1-Cyclopropyl-4,6-difluoro-1H-benzo[d]imidazol-5-yl)ethynyl)-1-(1-(2-fluoroacryloyl)azetidin-3-yl)-5-(methylamino)-1H-pyrazole-4-carboxamide]
  IC50: ≤ 100 nM

## C=CC(=O)N1C[C@@H](n2nc(C#Cc3cccc4cncn34)c(C(N)=O)c2NC)C[C@@H]1COC [Example 278, 3-(2-{Imidazo[1,5-a]pyridin-5-yl}ethynyl)-1-[(3S,5R)-5-(methoxymethyl)-1-(prop-2-enoyl)pyrrolidin-3-yl]-5-(methylamino)pyrazole-4-carboxamide]
  IC50: ≤ 100 nM

## C=CC(=O)N1C[C@@H](n2nc(C#Cc3ccc4ncn(CC)c4c3F)c(C(N)=O)c2NC)C[C@@H]1COC [Example 36, 3-[2-(3-ethyl-4-fluoro-1,3-benzodiazol-5-yl)ethynyl]-1-[(3S,5R)-5-(methoxymethyl)-1-(prop-2-enoyl)pyrrolidin-3-yl]-5-(methylamino)pyrazole-4-carboxamide]
  IC50: 100 to 1000 nM

## C=CC(=O)N1C[C@@H](n2nc(C#Cc3c(F)cc4[nH]c(C(F)(F)F)nc4c3F)c(C(N)=O)c2NC)C[C@@H]1COC [Example 46]
  IC50: ≤ 100 nM

## C=CC(=O)N1C[C@@H](n2nc(C#Cc3cc4ncn(C5COC5)c4cc3Cl)c(C(N)=O)c2NC)C[C@@H]1COC [Example 248]
  IC50: ≤ 100 nM

## C=CC(=O)N1C[C@@H](n2nc(C#Cc3cc4nc(C)n(CC)c4cc3C#N)c(C(N)=O)c2NC)C[C@@H]1COC [Example 24, 1-((3S,5R)-1-acryloyl-5-(methoxymethyl)pyrrolidin-3-yl)-3-((6-cyano-1-ethyl-2-methyl-1H-benzo[d]imidazol-5-yl)ethynyl)-5-(methylamino)-1H-pyrazole-4-carboxamide]
  IC50: 100 to 1000 nM

## C=CC(=O)N1C[C@@H](n2nc(C#Cc3cc4ncn(CC)c4cc3Cl)c(C(N)=O)c2N)C[C@@H]1CO [Example 194, 5-Amino-3-[2-(6-chloro-1-ethyl-1,3-benzodiazol-5-yl)ethynyl]-1-[(3S,5R)-5-(hydroxymethyl)-1-(prop-2-enoyl)pyrrolidin-3-yl]pyrazole-4-carboxamide]
  IC50: ≤ 100 nM

## C=CC(=O)N1C[C@@H](n2nc(C#Cc3c(Cl)cc4c(ncn4C)c3F)c(C(N)=O)c2NC)C[C@@H]1COC [Example 100, 3-[2-(6-Chloro-4-fluoro-1-methyl-1,3-benzodiazol-5-yl)ethynyl]-1-[(3S,5R)-5-(methoxymethyl)-1-(prop-2-enoyl)pyrrolidin-3-yl]-5-(methylamino)pyrazole-4-carboxamide]
  IC50: ≤ 100 nM

## C=CC(=O)N1C[C@@H](n2nc(C#Cc3c(F)cc4c(ncn4C4CC4)c3F)c(C(N)=O)c2N)C[C@@H]1COC(F)F [Example 215, 5-Amino-3-[2-(1-cyclopropyl-4,6-difluoro-1,3-benzodiazol-5-yl)ethynyl]-1-[(3S,5R)-5-[(difluoromethoxy)methyl]-1-(prop-2-enoyl)pyrrolidin-3-yl]pyrazole-4-carboxamide]
  IC50: ≤ 100 nM

## C=CC(=O)N1C[C@@H](n2nc(C#Cc3cccn4cncc34)c(C(N)=O)c2NC)C[C@@H]1COC [Example 277, 3-(2-{Imidazo[1,5-a]pyridin-8-yl}ethynyl)-1-[(3S,5R)-5-(methoxymethyl)-1-(prop-2-enoyl)pyrrolidin-3-yl]-5-(methylamino)pyrazole-4-carboxamide]
  IC50: ≤ 100 nM

## C=CC(=O)N1C[C@@H](n2nc(C#Cc3ccc4c(c3)nc(C3CC3)n4CC)c(C(N)=O)c2NC)C[C@@H]1COC [Example 25, 1-((3S,5R)-1-acryloyl-5-(methoxymethyl)pyrrolidin-3-yl)-3-((2-cyclopropyl-1-ethyl-1H-benzo[d]imidazol-5-yl)ethynyl)-5-(methylamino)-1H-pyrazole-4-carboxamide]
  IC50: ≤ 100 nM

## C=CC(=O)N1C[C@@H](n2nc(C#Cc3cc4nccn4cc3F)c(C(N)=O)c2NC)C[C@@H]1COC [Example 132, 1-((3S,5R)-1-Acryloyl-5-(methoxymethyl)pyrrolidin-3-yl)-3-((6-fluoroimidazo[1,2-a]pyridin-7-yl)ethynyl)-5-(methylamino)-1H-pyrazole-4-carboxamide]
  IC50: ≤ 100 nM

## C=CC(=O)N1C[C@@H](n2nc(C#Cc3cc4nc5n(c4cc3Cl)CCC5)c(C(N)=O)c2NC)C[C@@H]1COC [Example 285, 1-((3S,5R)-1-Acryloyl-5-(methoxymethyl)pyrrolidin-3-yl)-3-((7-chloro-2,3-dihydro-1H-benzo[d]pyrrolo[1,2-a]imidazol-6-yl)ethynyl)-5-(methylamino)-1H-pyrazole-4-carboxamide]
  IC50: ≤ 100 nM

## C=CC(=O)N1CC[C@H](n2nc(C#Cc3cc4ncn(C)c4cc3Cl)c(C(N)=O)c2NC)C1 [Example 144, 3-[2-(6-Chloro-1-methyl-1,3-benzodiazol-5-yl)ethynyl]-5-(methylamino)-1-[(3S)-1-(prop-2-enoyl)pyrrolidin-3-yl]pyrazole-4-carboxamide]
  IC50: ≤ 100 nM

## C=CC(=O)N1C[C@@H](n2nc(C#Cc3cc4nc(C)n(C)c4cc3F)c(C(N)=O)c2NC)C[C@@H]1COC [Example 28, 1-((3S,5R)-1-acryloyl-5-(methoxymethyl)pyrrolidin-3-yl)-3-((6-fluoro-1,2-dimethyl-1H-benzo[d]imidazol-5-yl)ethynyl)-5-(methylamino)-1H-pyrazole-4-carboxamide]
  IC50: ≤ 100 nM

## C=CC(=O)N1C[C@@H](n2nc(C#Cc3cccc4c3cnn4C)c(C(N)=O)c2NC)C[C@@H]1COC [Example 275, 1-((3S,5R)-1-Acryloyl-5-(methoxymethyl)pyrrolidin-3-yl)-3-((1-methyl-1H-indazol-4-yl)ethynyl)-5-(methylamino)-1H-pyrazole-4-carboxamide]
  IC50: ≤ 100 nM

## C=CC(=O)N1C[C@@H](n2nc(C#Cc3cc4nc(C)n(C(F)F)c4cc3Cl)c(C(N)=O)c2NC)C[C@@H]1COC [Example 96, 3-[2-[6-Chloro-1-(difluoromethyl)-2-methyl-1,3-benzodiazol-5-yl]ethynyl]-1-[(3S,5R)-5-(methoxymethyl)-1-(prop-2-enoyl)pyrrolidin-3-yl]-5-(methylamino)pyrazole-4-carboxamide]
  IC50: ≤ 100 nM

## C=CC(=O)N1C[C@@H](n2nc(C#Cc3cc4nc(C)[nH]c4cc3Cl)c(C(N)=O)c2NC)C[C@@H]1COC(F)(F)F [Example 87, 3-[2-(6-Chloro-2-methyl-1H-1,3-benzodiazol-5-yl)ethynyl]-5-(methylamino)-1-[(3S,5R)-1-(prop-2-enoyl)-5-[(trifluoromethoxy)methyl]pyrrolidin-3-yl]pyrazole-4-carboxamide]
  IC50: ≤ 100 nM

## C=CC(=O)N1C[C@@H](n2nc(C#Cc3c(F)cc4c(ncn4C4CC4)c3F)c(C(N)=O)c2NC)CC1C (stereo in doubt) [Example 159, 3-[2-(1-Cyclopropyl-4,6-difluoro-1,3-benzodiazol-5-yl)ethynyl]-1-[(3S,5R)-5-methyl-1-(prop-2-enoyl)pyrrolidin-3-yl]-5-(methylamino)pyrazole-4-carboxamide]
  IC50: ≤ 100 nM

## C=CC(=O)N1C[C@@H](n2nc(C#Cc3cc4nc(C)n(C5CC5)c4cc3Cl)c(C(N)=O)c2N)C[C@@H]1[C@H](C)O [Example 245, 1-((3S,5R)-1-Acryloyl-5-((S)-1-hydroxyethyl)pyrrolidin-3-yl)-5-amino-3-((6-chloro-1-cyclopropyl-2-methyl-1H-benzo[d]imidazol-5-yl)ethynyl)-1H-pyrazole-4-carboxamide]
  IC50: ≤ 100 nM

## C=CC(=O)N1CC[C@H](n2nc(C#Cc3ccc4nc(C)[nH]c4c3)c(C(N)=O)c2NC)C1 [Example 2, (S)-1-(1-acryloylpyrrolidin-3-yl)-3-((2-methyl-1H-benzo[d]imidazol-6-yl)ethynyl)-5-(methylamino)-1H-pyrazole-4-carboxamide]
  IC50: ≤ 100 nM

## C=CC(=O)N1C[C@@H](n2nc(C#Cc3ccc4c(C)noc4c3)c(C(N)=O)c2NC)C[C@@H]1COC [Example 44, 1-[(3S,5R)-5-(methoxymethyl)-1-(prop-2-enoyl)pyrrolidin-3-yl]-3-[2-(3-methyl-1,2-benzoxazol-6-yl)ethynyl]-5-(methylamino)pyrazole-4-carboxamide]
  IC50: ≤ 100 nM
